The values below come from PubChem BioAssay (NCI).

Values joined by “and” are separate entries in the source; they are usually repeats but may differ in a detail not shown here. Identical values can stand only once.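 These data come from cells grown in 96-well plates and exposed to compound for 48 hours at five concentrations. GI50 = concentration required for 50% inhibition of growth. At the TGI there is no net growth.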

Test systems include CCRF-CEM leukemia; K-562 leukemia; LOX IMVI melanoma; NCI-H460 lung; RPMI-8226 leukemia; SN12C renal; SNB-19 CNS; SW-620 colon; UACC-62 melanoma; HOP-92 NSCLC.
What all share (test): NCI-60 cell line screen, 48 h

With `COC1OC(C(C)O)C2OC(C)(C)OC12` (configuration not stated), the TGI in the assay on CCRF-CEM leukemia, in the assay with K-562 leukemia, in the assay with LOX IMVI melanoma, in the assay on NCI-H460 lung, in the assay with RPMI-8226 leukemia and in the assay with SN12C renal was over 100 µM throughout. Further, the TGI in the assay on SNB-19 CNS, with SW-620 colon and in the assay on UACC-62 melanoma was over 100 µM throughout.

`COc1cc2c(cc1OCCCCCn1c3ccccc3c3ccccc31)N=C[C@@H]1CCCN1C2=O`: the GI50 with LOX IMVI melanoma is 2.01 µM; with SN12C renal, 1.94 µM; in the assay with SNB-19 CNS it was 2.05 µM; in the assay on UACC-62 melanoma it was 1.86 µM. The TGI was 4.88 µM in the assay on LOX IMVI melanoma, 4.16 µM with SN12C renal, 4.04 µM in the assay on SNB-19 CNS and 3.8 µM in the assay with UACC-62 melanoma.

In the case of `CC1=C(C(=O)Nc2ccccc2C)C(c2ccccc2C)C(C(=O)Nc2ccccc2C)=C(C)N1`, the TGI with HOP-92 NSCLC amounted to 29.4 µM; in the assay with K-562 leukemia, 69.3 µM; in the assay on LOX IMVI melanoma, 30.3 µM; with NCI-H460 lung, 53.9 µM; in the assay on RPMI-8226 leukemia, 81.3 µM; with SN12C renal, 35.8 µM. In addition, the TGI was determined as 56.9 µM with SNB-19 CNS and 36.2 µM in the assay on SW-620 colon.

As for `COc1ccc(OC)c(/C=N/N=C2\C(=O)Nc3c(Cl)cc(Cl)cc32)c1`, the TGI with CCRF-CEM leukemia, in the assay on HOP-92 NSCLC, in the assay on K-562 leukemia, in the assay on LOX IMVI melanoma, in the assay with NCI-H460 lung and in the assay on SN12C renal was over 100 µM in each case. Also, the TGI in the assay on SNB-19 CNS, in the assay with SW-620 colon and in the assay with UACC-62 melanoma was over 100 µM throughout.

In the case of `CC1=NN(C(=O)c2nn(-c3ccc(Cl)cc3)cc2O)C(=O)C1`, the GI50 in the assay with CCRF-CEM leukemia was 0.608 µM; in the assay on K-562 leukemia it was 0.501 µM; with LOX IMVI melanoma it was 2.66 µM; in the assay on NCI-H460 lung, 0.41 µM; with RPMI-8226 leukemia, 1.07 µM; with SN12C renal, 1.81 µM. Further, the GI50 is 3.16 µM with SNB-19 CNS, 4.55 µM in the assay on SW-620 colon and 2.28 µM in the assay on UACC-62 melanoma. Also, the TGI in the assay with CCRF-CEM leukemia is over 22 µM; with K-562 leukemia it was over 100 µM; in the assay with LOX IMVI melanoma, over 100 µM; with NCI-H460 lung it was over 52.7 µM; in the assay with RPMI-8226 leukemia, over 88.9 µM; in the assay with SN12C renal, over 100 µM. The figures for the TGI with SNB-19 CNS, in the assay on SW-620 colon and with UACC-62 melanoma were over 100 µM, over 100 µM and over 80.8 µM, respectively.

Turning to `Cc1ccccc1NC(=O)c1cc2ccccc2cc1O`, the GI50 in the assay with HOP-92 NSCLC is 2.39 µM; in the assay on K-562 leukemia, 5.23 µM; with LOX IMVI melanoma, 3.26 µM; with NCI-H460 lung, 2.77 µM; in the assay with RPMI-8226 leukemia, 2.83 µM; with SN12C renal, 2.62 µM. Moreover, the results for the GI50 with SNB-19 CNS, with SW-620 colon and in the assay on UACC-62 melanoma were 4.6 µM, 3.96 µM and 3.48 µM, respectively. In addition, the TGI in the assay with HOP-92 NSCLC was 5.94 µM; with K-562 leukemia it was over 100 µM; in the assay with LOX IMVI melanoma it was over 100 µM; with NCI-H460 lung it was 7.29 µM; in the assay with RPMI-8226 leukemia it was 8.9 µM; in the assay with SN12C renal, 9.18 µM. The TGI with SNB-19 CNS, in the assay with SW-620 colon and in the assay with UACC-62 melanoma was over 100 µM each time.

`COc1cc2c3cc1Oc1c(OC)c(OC)cc4c1C(Cc1ccc(cc1)Oc1cc(ccc1O)CC3N(C)CC2)N(C)CC4` (configuration not stated): the GI50 was 6.96 µM and 2.78 µM with CCRF-CEM leukemia; 6.39 µM and 2.56 µM in the assay with LOX IMVI melanoma; 14.5 µM and 4.72 µM with NCI-H460 lung; 28.6 µM and 12 µM in the assay with SNB-19 CNS. Besides, the TGI with CCRF-CEM leukemia is 58.3 µM and 24.7 µM; with HOP-92 NSCLC, 38.7 µM and 41.3 µM; in the assay with LOX IMVI melanoma, 19.1 µM; in the assay with NCI-H460 lung, 32.6 µM and 17.3 µM; in the assay on RPMI-8226 leukemia, 32.1 µM; in the assay on SN12C renal it was 61.3 µM and 30.6 µM. In addition, the TGI in the assay with SNB-19 CNS was 72.7 µM and 24.7 µM; in the assay with SW-620 colon it was 22.6 µM and 45.8 µM; in the assay on UACC-62 melanoma, 28.5 µM and 21.7 µM.

Take `COc1cc(/C=C\c2ccc(Cl)cc2)cc(OC)c1OC`: the TGI in the assay with CCRF-CEM leukemia is 3.96 µM; in the assay with K-562 leukemia it was over 44.2 µM; with LOX IMVI melanoma it was over 100 µM; in the assay on NCI-H460 lung it was over 100 µM; in the assay with RPMI-8226 leukemia, 46.4 µM; with SN12C renal it was over 100 µM. Also, the TGI with SNB-19 CNS, in the assay on SW-620 colon and in the assay with UACC-62 melanoma was over 100 µM throughout.

In the case of `O=C(O)c1cc(=O)c2cc(C(=O)c3cccs3)c(Cl)c(Cl)c2o1`, the TGI with CCRF-CEM leukemia, in the assay with HOP-92 NSCLC, with K-562 leukemia, in the assay with NCI-H460 lung, in the assay on RPMI-8226 leukemia and with SN12C renal was over 100 µM in each case. Besides, the TGI in the assay on SNB-19 CNS, in the assay on SW-620 colon and with UACC-62 melanoma was over 100 µM each time.

On to `CC(=O)O[C@H]1CC[C@@]2(C)C(=C/C(=N\[N+](=O)[O-])[C@H]3C4CCC([C@H](C)CCCC(C)C)[C@@]4(C)CCC32)C1` (some centres not stated), for which the TGI in the assay with HOP-92 NSCLC, with K-562 leukemia, in the assay with LOX IMVI melanoma, with NCI-H460 lung, in the assay on RPMI-8226 leukemia and in the assay on SN12C renal was over 100 µM each time. Further, the TGI in the assay on SNB-19 CNS, in the assay on SW-620 colon and in the assay with UACC-62 melanoma was over 100 µM in each case.

Regarding `O=CN1N=C(c2ccc(Nc3ccnc4cc(Cl)ccc34)cc2)CC1c1ccc(Cl)cc1` (configuration not stated), the GI50 with HOP-92 NSCLC was over 100 µM; in the assay on LOX IMVI melanoma, 0.599 µM; with NCI-H460 lung, 0.592 µM; in the assay with SN12C renal it was 0.978 µM; in the assay on SNB-19 CNS, 1.92 µM; in the assay on SW-620 colon it was 0.478 µM. The GI50 in the assay on UACC-62 melanoma is 0.567 µM. The TGI with HOP-92 NSCLC, in the assay with LOX IMVI melanoma, in the assay on NCI-H460 lung, in the assay with SN12C renal, in the assay on SNB-19 CNS and in the assay with SW-620 colon was over 100 µM throughout. The compound further showed a TGI with UACC-62 melanoma of over 100 µM.

`CCSC(=O)C1(C)OC2CCCCC2C1=O` (configuration not stated): the TGI in the assay with CCRF-CEM leukemia, with K-562 leukemia, with NCI-H460 lung, in the assay on RPMI-8226 leukemia, with SN12C renal and in the assay with SNB-19 CNS was over 100 µM throughout. Also, the TGI with SW-620 colon and with UACC-62 melanoma was over 100 µM each time.
